Measured values published in paper PMC12246082, “Structural basis for catalysis by human lipoyl synthase” (Nature Communications, 2025).
Values belong to the molecule of their own block, whether it stands above or below them. Ends that are not written are not given here. * marks the point of attachment. Octanoyl = CCCCCCCC(=O)*

How the values were obtained:
[1] = molecular target: T1, human LIAS (lipoyl synthase) (Homo sapiens, UniProt O43766); assay: X-ray crystal structure, […] Å; format: binding; conditions: co-crystallised with 5'-dAH and OCT-8mer, anaerobic; bidentate to unique Fe of radical SAM [Fe4S4] cluster
T1 construct: residues 65-372, N-terminal His6-tag with 10-aa linker kept (pET-28a), E. coli BL21(DE3) with pDB1282; two [Fe4S4] clusters; monomeric in asymmetric unit of 8TRW
T1 sequence (O43766 65-372): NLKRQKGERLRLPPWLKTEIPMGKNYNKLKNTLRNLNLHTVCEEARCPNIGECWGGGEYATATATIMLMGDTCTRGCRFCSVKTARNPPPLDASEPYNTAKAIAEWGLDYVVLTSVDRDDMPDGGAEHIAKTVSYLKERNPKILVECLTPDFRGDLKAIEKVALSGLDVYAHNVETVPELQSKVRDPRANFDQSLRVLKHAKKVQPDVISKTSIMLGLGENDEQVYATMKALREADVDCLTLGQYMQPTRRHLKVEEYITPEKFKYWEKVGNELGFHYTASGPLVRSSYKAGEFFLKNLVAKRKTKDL

[2] = molecular target: T2, truncated human lipoyl synthase (LIAS isoform 1, aa 65–372) (human); assay: crystal structure; LIAS (8 mg/ml) co-crystallised with 2.5 mM L-Met, 1 mM 5’-dAH and a 1.3x molar ratio of OCT-8mer; anaerobic, hanging drop, 0.1 M HEPES pH 7.5, 0.2 M Na2SO4, 30% PEG 3350, 3% trehalose; conditions: both partners purified
T2 construct: lipoyl synthase (LIAS), human, isoform 1, residues 65-372; Holds two [Fe4S4] clusters (RS and auxiliary); in the complex with Hpro the auxiliary cluster is [Fe3S3:1 mercaptooctanoyllysyl]; also called human LIAS; trnLIAS; source: E. coli BL21 (DE3) co-transformed with pDB1282, purified anaerobically (Ni-NTA, size-exclusion S-200); not shown: His6 (separated from the protein by a ten aa linker), …
T2 chain: T1 sequence (O43766 65-372)

Molecule: CSCC[C@H](N)C(=O)O [Met, methionine]
X-ray crystal structure, 1.58 Å [1]: The oxygen and nitrogen atoms of Met are coordinated to the unique iron

binding result [2]: binds
B1: octanoyl-containing eight amino acid peptide substrate mimic, Glu-Ser-Val-(N6-octanoyl)Lys-Ala-Ala-Ser-Asp (peptide)
peptide: ESVK(Octanoyl)AASD
notes: printed in three-letter code; human Hpro 104-111 is ESVKAASE; also called OCT-8mer; OCT-8-mer; source: synthetic peptide, custom-synthesized by Proimmune (Oxford, UK)
